According to patent publication US8802597B2, “Herbicidal pyrimidines” (E I du Pont de Nemours and Company, priority 2003, dated 2014):

Columns and labels:
Assay in all cases: Test C pre/postemergence
Assay type in all cases: in vivo
[1] = tested on: morningglory (Ipomoea coccinea); conditions: for Morningglory plant response rating: scale 0 to 100 (0 no effect, 100 complete control)
Summary of the method: (§1)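 Greenhouse pot test: seeds treated preemergence, or plants at 2–18 cm (1- to 4-leaf stage) treated postemergence, with compound in non-phytotoxic solvent plus surfactant. Visual rating versus untreated controls after 12–14 days, scale 0 (no effect) to 100 (complete control); dash means not tested.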

[2] = tested on: Surinam grass (Brachiaria decumbens); conditions: for Surinam Grass plant response rating: scale 0 to 100 (0 no effect, 100 complete control)
Summary of the method: as §1

soybean (Glycine max) = conditions: for Soybean plant response rating: scale 0 to 100 (0 no effect, 100 complete control)
Summary of the method: as §1

[3] = tested on: giant foxtail (Setaria faberii); conditions: for Foxtail, Giant plant response rating: scale 0 to 100 (0 no effect, 100 complete control)
Summary of the method: as §1

kochia (Kochia scoparia) = conditions: for Kochia plant response rating: scale 0 to 100 (0 no effect, 100 complete control)
Summary of the method: as §1

[4] = tested on: pigweed (Amaranthus retroflexus); conditions: for Pigweed plant response rating: scale 0 to 100 (0 no effect, 100 complete control)
Summary of the method: as §1

[5] = tested on: johnsongrass (Sorghum halepense); conditions: for Johnsongrass plant response rating: scale 0 to 100 (0 no effect, 100 complete control)
Summary of the method: as §1

[6] = tested on: bermudagrass (Cynodon dactylon)
Summary of the method: as §1

[7] = tested on: woolly cupgrass (Eriochloa villosa); conditions: for Cupgrass, Woolly plant response rating: scale 0 to 100 (0 no effect, 100 complete control)
Summary of the method: as §1

[8] = tested on: goosegrass (Eleusine indica); conditions: for Goosegrass plant response rating: scale 0 to 100 (0 no effect, 100 complete control)
Summary of the method: as §1

[9] = tested on: common (oilseed) sunflower (Helianthus annuus); conditions: Preemergence
Summary of the method: as §1

[10] = tested on: crabgrass (Digitaria sanguinalis); conditions: for Crabgrass plant response rating: scale 0 to 100 (0 no effect, 100 complete control)
Summary of the method: as §1

[11] = Postemergence, 250 g ai/ha, scale 0 to 100
[12] = Preemergence, 31 g ai/ha, scale 0 to 100, 0 no effect, 100 complete control
[13] = Preemergence, 62 g ai/ha, scale 0 to 100, 0 no effect, 100 complete control
[14] = Preemergence, 125 g ai/ha, scale 0 to 100
[15] = Preemergence, 250 g ai/ha, scale 0 to 100

CCCCOC(=O)c1nc(C2CC2)nc(N)c1Br [Compound 16]
Plant response rating (scale of 0 to 100), Morningglory ([1]; Postemergence, 31 g ai/ha): 85 | Morningglory plant response rating ([1]; Postemergence, 62 g ai/ha): 95 | Morningglory plant response rating ([1]; Postemergence, 125 g ai/ha): 100 | Plant response rating, Morningglory [1, 11]: 100 | Plant response rating, Morningglory [1, 12]: 65 | Plant response rating, Morningglory [1, 13]: 95 | Plant response rating, Morningglory [1, 14]: 100 | Plant response rating, Morningglory [1, 15]: 100 | Plant response rating (scale of 0 to 100), Surinam Grass ([2]; Postemergence, 31 g ai/ha): 0 | Surinam Grass plant response rating ([2]; Postemergence, 62 g ai/ha): 0 | Surinam Grass plant response rating ([2]; Postemergence, 125 g ai/ha): 25 | Plant response rating, Surinam Grass [2, 11]: 55 | Plant response rating, Surinam Grass [2, 12]: 0 | Plant response rating, Surinam Grass [2, 13]: 0 | Plant response rating, Surinam Grass [2, 14]: 15 | Plant response rating, Surinam Grass [2, 15]: 80 | Plant response rating (scale of 0 to 100), Soybean (soybean (Glycine max); Postemergence, 31 g ai/ha): 85 | Soybean plant response rating (soybean (Glycine max); Postemergence, 62 g ai/ha): 95 | Soybean plant response rating (soybean (Glycine max); Postemergence, 125 g ai/ha): 100 | Plant response rating, Soybean (soybean (Glycine max); [11]): 100 | Plant response rating, Soybean (soybean (Glycine max); [12]): 75 | Plant response rating, Soybean (soybean (Glycine max); [13]): 85 | Plant response rating, Soybean (soybean (Glycine max); [14]): 100 | Plant response rating, Soybean (soybean (Glycine max); [15]): 100 | Plant response rating (scale of 0 to 100), Foxtail, Giant ([3]; Postemergence, 31 g ai/ha): 0 | Foxtail, Giant plant response rating ([3]; Postemergence, 62 g ai/ha): 20 | Foxtail, Giant plant response rating ([3]; Postemergence, 125 g ai/ha): 55 | Plant response rating, Foxtail, Giant [3, 11]: 65 | Plant response rating, Foxtail, Giant [3, 12]: 0 | Plant response rating, Foxtail, Giant [3, 13]: 0 | Plant response rating, Foxtail, Giant [3, 14]: 0 | Plant response rating, Foxtail, Giant [3, 15]: 75 | Plant response rating (scale of 0 to 100), Kochia (kochia (Kochia scoparia); Postemergence, 31 g ai/ha): 95 | Kochia plant response rating (kochia (Kochia scoparia); Postemergence, 62 g ai/ha): 100 | Kochia plant response rating (kochia (Kochia scoparia); Postemergence, 125 g ai/ha): 100 | Plant response rating, Kochia (kochia (Kochia scoparia); [11]): 100 | Plant response rating, Kochia (kochia (Kochia scoparia); [12]): 90 | Plant response rating, Kochia (kochia (Kochia scoparia); [13]): 95 | Plant response rating, Kochia (kochia (Kochia scoparia); [14]): 100 | Plant response rating, Kochia (kochia (Kochia scoparia); [15]): 100 | Plant response rating (scale of 0 to 100), Pigweed ([4]; Postemergence, 31 g ai/ha): 85 | Pigweed plant response rating ([4]; Postemergence, 62 g ai/ha): 90 | Pigweed plant response rating ([4]; Postemergence, 125 g ai/ha): 95 | Plant response rating, Pigweed [4, 11]: 95 | Plant response rating, Pigweed [4, 12]: 85 | Plant response rating, Pigweed [4, 13]: 95 | Plant response rating, Pigweed [4, 14]: 100 | Plant response rating, Pigweed [4, 15]: 100 | Plant response rating (scale of 0 to 100), Johnsongrass ([5]; Postemergence, 31 g ai/ha): 0 | Johnsongrass plant response rating ([5]; Postemergence, 62 g ai/ha): 0 | Johnsongrass plant response rating ([5]; Postemergence, 125 g ai/ha): 60 | Plant response rating, Johnsongrass [5, 11]: 70 | Plant response rating, Johnsongrass [5, 12]: 0 | Plant response rating, Johnsongrass [5, 13]: 40 | Plant response rating, Johnsongrass [5, 14]: 65 | Plant response rating, Johnsongrass [5, 15]: 80 | Plant response rating (scale of 0 to 100), Bermudagrass ([6]; Postemergence, 31 g ai/ha): 0 | Bermudagrass plant response rating ([6]; Postemergence, 62 g ai/ha, scale 0 to 100 (0 no effect, 100 complete control)): 0 | Plant response rating, Bermudagrass [6, 11]: 75 | Plant response rating, Bermudagrass ([6]; Postemergence, 125 g ai/ha, scale 0 to 100): 60 | Plant response rating, Bermudagrass [6, 12]: 0 | Plant response rating, Bermudagrass [6, 13]: 0 | Plant response rating, Bermudagrass [6, 14]: 0 | Plant response rating, Bermudagrass [6, 15]: 0 | Plant response rating (scale of 0 to 100), Cupgrass, Woolly ([7]; Postemergence, 31 g ai/ha): 0 | Cupgrass, Woolly plant response rating ([7]; Postemergence, 62 g ai/ha): 0 | Cupgrass, Woolly plant response rating ([7]; Postemergence, 125 g ai/ha): 0 | Plant response rating, Cupgrass, Woolly [7, 11]: 65 | Plant response rating, Cupgrass, Woolly [7, 12]: 0 | Plant response rating, Cupgrass, Woolly [7, 13]: 0 | Plant response rating, Cupgrass, Woolly [7, 14]: 15 | Plant response rating, Cupgrass, Woolly [7, 15]: 65 | Plant response rating (scale of 0 to 100), Goosegrass ([8]; Postemergence, 31 g ai/ha): 0 | Goosegrass plant response rating ([8]; Postemergence, 62 g ai/ha): 0 | Goosegrass plant response rating ([8]; Postemergence, 125 g ai/ha): 0 | Plant response rating, Goosegrass [8, 11]: 20 | Plant response rating, Goosegrass [8, 12]: 0 | Plant response rating, Goosegrass [8, 13]: 0 | Plant response rating, Goosegrass [8, 14]: 0 | Plant response rating, Goosegrass [8, 15]: 0 | Plant response rating, Sunflower ([9]; 31 g ai/ha, scale 0 to 100, 0 no effect, 100 complete control): 20 | Plant response rating, Sunflower ([9]; 62 g ai/ha, scale 0 to 100, 0 no effect, 100 complete control): 85 | Plant response rating, Sunflower ([9]; 125 g ai/ha, scale 0 to 100): 100 | Plant response rating, Sunflower ([9]; 250 g ai/ha, scale 0 to 100): 100 | Plant response rating (scale of 0 to 100), Crabgrass ([10]; Postemergence, 31 g ai/ha): 0 | Crabgrass plant response rating ([10]; Postemergence, 62 g ai/ha): 15 | Crabgrass plant response rating ([10]; Postemergence, 125 g ai/ha): 45 | Plant response rating, Crabgrass [10, 11]: 75 | Plant response rating, Crabgrass [10, 12]: 0 | Plant response rating, Crabgrass [10, 13]: 0 | Plant response rating, Crabgrass [10, 14]: 65 | Plant response rating, Crabgrass [10, 15]: 95
